In patent publication US20260070899A1, “N-(2-(4-CYANOTHIAZOLIDIN-3-YL)-2-OXOETHYL)-QUINOLINE-4-CARBOXAMIDES” (AstraZeneca AB, priority 2022, published 2026):

Key:
Assay in all cases: biochemical
[1] = biological target: T1, Prolyl endopeptidase, Prolyl Oligopeptidase (hPREP) (Homo sapiens, UniProt P48147)
T1 sequence (P48147 1-710): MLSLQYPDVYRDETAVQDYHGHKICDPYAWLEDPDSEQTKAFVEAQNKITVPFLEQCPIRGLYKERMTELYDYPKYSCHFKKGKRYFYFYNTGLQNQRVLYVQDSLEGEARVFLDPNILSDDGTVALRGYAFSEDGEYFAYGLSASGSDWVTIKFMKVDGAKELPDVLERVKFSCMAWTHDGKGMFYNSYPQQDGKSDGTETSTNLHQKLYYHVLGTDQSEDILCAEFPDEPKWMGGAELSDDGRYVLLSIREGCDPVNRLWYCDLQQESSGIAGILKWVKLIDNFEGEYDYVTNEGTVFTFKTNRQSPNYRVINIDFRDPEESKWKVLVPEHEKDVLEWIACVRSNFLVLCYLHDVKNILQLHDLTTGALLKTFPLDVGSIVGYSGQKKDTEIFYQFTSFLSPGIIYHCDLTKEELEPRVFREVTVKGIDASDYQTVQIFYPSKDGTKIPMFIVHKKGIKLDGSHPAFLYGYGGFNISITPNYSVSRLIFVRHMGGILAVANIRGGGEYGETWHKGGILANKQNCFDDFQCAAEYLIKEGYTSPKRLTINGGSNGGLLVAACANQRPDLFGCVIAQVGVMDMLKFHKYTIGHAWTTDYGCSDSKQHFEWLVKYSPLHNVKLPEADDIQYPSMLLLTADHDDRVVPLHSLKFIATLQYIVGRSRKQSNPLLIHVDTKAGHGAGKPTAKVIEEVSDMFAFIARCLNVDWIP
Protocol: Compounds were tested in a biochemical inhibition assay using Prolyl endopeptidase, Prolyl Oligopeptidase (hPREP) enzyme at 0.6 nM FAC (R&D Systems, 4308-SE) and the substrate Z-Gly-Pro-amino-methylcoumarin (Bachem, I-1145) at 50 μM FAC. 384 Low volume black plates (Greiner #784076) were used. […] Plates were incubated for 15 min at rt in dark. 4 μL, 100 μM substrate solution (25 mM Tris HCl, 250 mM NaCl, 0.01% Triton X-100, 5 mM Glutathione, pH 7.5) was added to each well. Plates were centrifuged at 1000 rpm and incubated for 20 min at rt in dark. The plates were read on a PHERAstar® reader with excitation 340 nm and emission 460 nm. Data were analyzed in Genedata Screener®. IC50 values were determined by plotting % inhibition versus log compound concentration and using a one site dose response model.

hFAP = biological target: T2, hFAP (Homo sapiens, UniProt Q12884);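 note: substrate fluorescence read at room temperature in darkness, IC50 obtained by one-site dose-response fitting of percent inhibition against log concentration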
T2 sequence (Q12884 38-760): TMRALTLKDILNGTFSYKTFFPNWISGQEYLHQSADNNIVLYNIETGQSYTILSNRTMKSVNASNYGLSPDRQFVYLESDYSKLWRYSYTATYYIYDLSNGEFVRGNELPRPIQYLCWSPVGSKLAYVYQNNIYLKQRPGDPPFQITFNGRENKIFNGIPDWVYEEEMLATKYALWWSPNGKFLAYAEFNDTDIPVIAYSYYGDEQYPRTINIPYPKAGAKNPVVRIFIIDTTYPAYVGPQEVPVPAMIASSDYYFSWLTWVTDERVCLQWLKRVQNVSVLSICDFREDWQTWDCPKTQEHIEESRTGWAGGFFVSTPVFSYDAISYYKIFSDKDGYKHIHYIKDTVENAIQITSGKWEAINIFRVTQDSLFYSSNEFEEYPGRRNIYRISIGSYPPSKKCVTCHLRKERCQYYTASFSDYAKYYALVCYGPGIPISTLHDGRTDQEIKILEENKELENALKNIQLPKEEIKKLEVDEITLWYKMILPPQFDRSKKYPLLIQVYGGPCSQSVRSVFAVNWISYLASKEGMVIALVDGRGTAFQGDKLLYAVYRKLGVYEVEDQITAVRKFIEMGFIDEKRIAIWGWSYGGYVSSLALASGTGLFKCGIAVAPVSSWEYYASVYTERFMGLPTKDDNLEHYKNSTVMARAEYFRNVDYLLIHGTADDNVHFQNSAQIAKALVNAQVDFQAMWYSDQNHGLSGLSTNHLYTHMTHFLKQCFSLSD
Protocol: 384 low volume black plates (Greiner #784076) were used. 4 μL, 0.48 nM enzyme solution (100 mM Tris HCl, 100 mM NaCl, 0.05% Chaps, pH 7.4) was added to 40 nL compounds (in DMSO) at 10 CR, 3 fold dilution series from 50 μM FAC. Plates were incubated for 15 min at rt in dark. 4 μL, 40 μM substrate solution (100 mM Tris HCl, 100 mM NaCl, 0.05% Chaps, pH 7.4) was added to each well. Plates were centrifuged at 1000 rpm and incubated for 30 min at rt in dark. The plates were read on a PHERAstar® reader with excitation 340 nm and emission 460 nm. Data were analyzed in Genedata Screener®. IC50 values were determined by plotting % inhibition versus log compound concentration and using a one site dose response model.

hFAP (M39-A757) = biological target: T3, hFAP (M39-A757) (Homo sapiens, UniProt Q12884);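 note: surface plasmon resonance direct binding to hFAP amine-coupled on a sensor chip, rising compound concentrations by single cycle kinetics, Kd from global fit of interaction models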
T3 sequence (Q12884 39-757): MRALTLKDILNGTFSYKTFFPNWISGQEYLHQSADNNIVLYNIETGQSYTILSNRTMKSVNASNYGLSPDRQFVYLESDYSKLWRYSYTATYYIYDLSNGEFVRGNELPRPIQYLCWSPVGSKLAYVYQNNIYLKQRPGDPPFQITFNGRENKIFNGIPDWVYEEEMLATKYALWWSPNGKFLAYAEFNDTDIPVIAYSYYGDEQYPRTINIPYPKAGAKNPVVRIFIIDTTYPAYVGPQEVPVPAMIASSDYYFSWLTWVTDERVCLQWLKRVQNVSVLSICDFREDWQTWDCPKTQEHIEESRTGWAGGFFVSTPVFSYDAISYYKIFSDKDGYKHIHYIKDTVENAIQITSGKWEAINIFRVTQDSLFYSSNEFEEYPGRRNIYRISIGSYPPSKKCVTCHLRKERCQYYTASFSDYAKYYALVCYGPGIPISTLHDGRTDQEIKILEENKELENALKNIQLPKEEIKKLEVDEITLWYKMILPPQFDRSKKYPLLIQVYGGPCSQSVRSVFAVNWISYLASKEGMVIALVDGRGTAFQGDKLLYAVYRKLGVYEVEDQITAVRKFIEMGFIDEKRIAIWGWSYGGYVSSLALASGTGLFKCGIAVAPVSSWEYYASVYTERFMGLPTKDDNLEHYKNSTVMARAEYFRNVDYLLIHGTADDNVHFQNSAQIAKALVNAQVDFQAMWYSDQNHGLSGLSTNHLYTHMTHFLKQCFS

Compound	IC50 [1] [nM]	IC50 (hFAP) [nM]	Kd (hFAP (M39-A757)) [nM]
Cc1nn(C)nc1Cc1ccc2nccc(C(=O)NCC(=O)N3CSC[C@H]3C#N)c2c1 [Example 19, (R)—N-(2-(4-Cyanothiazolidin-3-yl)-2-oxoethyl)-6-((2,5-dimethyl-2H-1,2,3-triazol-4-yl)methyl)quinoline-4-carboxamide]	590	0.22	0.1
Cc1conc1Cc1ccc2nccc(C(=O)NCC(=O)N3CSC[C@H]3C#N)c2c1 [Example 38, (R)—N-(2-(4-Cyanothiazolidin-3-yl)-2-oxoethyl)-6-((4-methylisoxazol-3-yl)methyl)quinoline-4-carboxamide]	180	0.21	0.34
CC(O)c1ccc2nccc(C(=O)NCC(=O)N3CSC[C@H]3C#N)c2c1 (mixture of isomers) [Example 25, N-(2-((R)-4-Cyanothiazolidin-3-yl)-2-oxoethyl)-6-((RS)-1-hydroxyethyl)quinoline-4-carboxamide]	440	0.66	0.8
CO[C@H]1C[C@](F)(c2ccc3nccc(C(=O)NCC(=O)N4CSC[C@H]4C#N)c3c2)C1 (single isomer, unassigned) [Example 63, N-(2-((R)-4-Cyanothiazolidin-3-yl)-2-oxoethyl)-6-((1r,3R*)-1-fluoro-3-methoxycyclobutyl)quinoline-4-carboxamide]	330	–	0.097
COCC(OC)c1ccc2nccc(C(=O)NCC(=O)N3CSC[C@H]3C#N)c2c1 (mixture of isomers) [Example 30, N-(2-((R)-4-Cyanothiazolidin-3-yl)-2-oxoethyl)-6-((RS)-1,2-dimethoxyethyl)quinoline-4-carboxamide]	1700	1.7	0.63
N#C[C@@H]1CSCN1C(=O)CNC(=O)c1ccnc2ccc(C3CCCO3)cc12 (mixture of isomers) [Example 34, N-(2-((R)-4-Cyanothiazolidin-3-yl)-2-oxoethyl)-6-((RS)-tetrahydrofuran-2-yl)quinoline-4-carboxamide]	460	0.61	0.31
Cc1ccc2nccc(C(=O)NCC(=O)N3CSC[C@H]3C#N)c2c1 [Example 28, (R)—N-(2-(4-cyanothiazolidin-3-yl)-2-oxoethyl)-6-methylquinoline-4-carboxamide]	34	0.65	1.6
CC1(C)CC(c2ccc3nccc(C(=O)NCC(=O)N4CSC[C@H]4C#N)c3c2)CCO1 (mixture of isomers) [Example 68, N-(2-((R)-4-Cyanothiazolidin-3-yl)-2-oxoethyl)-6-((RS)-2,2-dimethyltetrahydro-2H-pyran-4-yl)quinoline-4-carboxamide]	330	0.3	0.075
N#C[C@@H]1CSCN1C(=O)CNC(=O)c1ccnc2ccc(C3(c4ccc(Cl)cn4)CC3)cc12 [Example 47, (R)-6-(1-(5-Chloropyridin-2-yl)cyclopropyl)-N-(2-(4-cyanothiazolidin-3-yl)-2-oxoethyl)quinoline-4-carboxamide]	240	–	0.22
Cn1ncc(Cc2ccc3nccc(C(=O)NCC(=O)N4CSC[C@H]4C#N)c3c2)n1 [Example 41, (R)—N-(2-(4-Cyanothiazolidin-3-yl)-2-oxoethyl)-6-((2-methyl-2H-1,2,3-triazol-4-yl)methyl)quinoline-4-carboxamide]	370	0.088	0.36
N#C[C@@H]1CSCN1C(=O)CNC(=O)c1ccnc2ccc(C3COCCO3)cc12 (mixture of isomers) [Example 33, N-(2-((R)-4-Cyanothiazolidin-3-yl)-2-oxoethyl)-6-((RS)-1,4-dioxan-2-yl)quinoline-4-carboxamide]	680	0.54	0.3
Cc1cc(C)c(Cc2ccc3nccc(C(=O)NCC(=O)N4CSC[C@H]4C#N)c3c2)cn1 [Example 39, (R)—N-(2-(4-Cyanothiazolidin-3-yl)-2-oxoethyl)-6-((4,6-dimethylpyridin-3-yl)methyl)quinoline-4-carboxamide]	530	0.34	0.18
N#C[C@@H]1CSCN1C(=O)CNC(=O)c1ccnc2ccc(Oc3ccccc3)cc12 [Example 1, (R)—N-(2-(4-Cyanothiazolidin-3-yl)-2-oxoethyl)-6-phenoxyquinoline-4-carboxamide]	35	0.44	0.33
N#C[C@@H]1CSCN1C(=O)CNC(=O)c1ccnc2ccc(CC3CCOC3)cc12 (mixture of isomers) [Example 65, N-(2-((R)-4-Cyanothiazolidin-3-yl)-2-oxoethyl)-6-(((RS)-tetrahydrofuran-3-yl)methyl)quinoline-4-carboxamide]	210	–	0.091
N#C[C@@H]1CSCN1C(=O)CNC(=O)c1ccnc2ccc([C@]34CCOC[C@H]3C4)cc12 (racemic) [Example 69, 6-((1RS,6SR)-3-Oxabicyclo[4.1.0]heptan-6-yl)-N-(2-((R)-4-cyanothiazolidin-3-yl)-2-oxoethyl)quinoline-4-carboxamide]	350	0.2	0.026
Cc1cc(C(C)c2ccc3nccc(C(=O)NCC(=O)N4CSC[C@H]4C#N)c3c2)no1 (mixture of isomers) [Example 46, N-(2-((R)-4-Cyanothiazolidin-3-yl)-2-oxoethyl)-6-((RS)-1-(5-methylisoxazol-3-yl)ethyl)quinoline-4-carboxamide]	80	–	0.13
CC(c1ccc2nccc(C(=O)NCC(=O)N3CSC[C@H]3C#N)c2c1)c1ncccc1F (mixture of isomers) [Example 12, N-(2-((R)-4-Cyanothiazolidin-3-yl)-2-oxoethyl)-6-((RS)-1-(3-fluoropyridin-2-yl)ethyl)quinoline-4-carboxamide]	110	–	0.19
COC1(c2ccc3nccc(C(=O)NCC(=O)N4CSC[C@H]4C#N)c3c2)CCOCC1 [Example 66, (R)—N-(2-(4-Cyanothiazolidin-3-yl)-2-oxoethyl)-6-(4-methoxy-tetrahydro-2H-pyran-4-yl)quinoline-4-carboxamide]	460	0.15	0.15
N#C[C@@H]1CSCN1C(=O)CNC(=O)c1ccnc2ccc(C(F)(F)F)cc12 [Example 17, (R)—N-(2-(4-Cyanothiazolidin-3-yl)-2-oxoethyl)-6-(trifluoromethyl)-quinoline-4-carboxamide]	35	0.79	0.91
N#C[C@@H]1CSCN1C(=O)CNC(=O)c1ccnc2ccc(C3=CCOCC3)cc12 [Example 22, (R)—N-(2-(4-Cyanothiazolidin-3-yl)-2-oxoethyl)-6-(3,6-dihydro-2H-pyran-4-yl)quinoline-4-carboxamide]	560	0.24	0.013
